In US7211599B2, “Use of etodolac to treat hyperplasia” (The Regents of the University of California, priority 2002, dated 2007):
Values joined by “and” are separate entries in the source; they are usually repeats but may differ in a detail not shown here. Identical values can stand only once. Marks after values point to notes of the source that are not given here.

Assays:
[1] = cited from earlier work
prostaglandin synthetase = conditions: Demerson et al. 1983; cited from earlier work
[2] = test system: rats with adjuvant polyarthritis; conditions: Demerson et al. 1983; cited from earlier work
hyperplastic cells = assay: Activity against hyperplastic cells; conditions: compared with S(+) enantiomer
Source text: The pharmacokinetics of etodolac have been extensively reviewed by D. R. Brocks et al., Clin. Pharmacokinet., 26, 259 (1994). Etodolac is marketed as the racemate.

[3] = test system: transgenic adenocarcinoma mouse prostate (TRAMP) mouse; assay: TRAMP animal model: histopathological evaluation of the prostate (grade 1-6); format: in vivo; parameters: key to Average mouse Staging / Overall Mean (staging of group) / Histopathological grade, Lateral prostate: histological grade on 1-6 scale of hyperplasia/neoplasia/carcinoma; conditions: for Overall Mean (staging of group): TRAMP mice; for Average mouse Staging: mean of lobe grades
Experimental: (§1) The transgenic adenocarcinoma mouse prostate (TRAMP) mouse, was used to evaluate the effect of R-etodolac on prostate cancer progression. The etodolac was compounded into the diet at 312 ppm (low dose) and 1250 ppm (high dose) and the animals were treated for 18 weeks. At necoscopy, the urogenital system was removed and weighed. The prostate lobes, seminal vesicles, lungs, liver, and periaortic lymph nodes were preserved and sectioned for histological evaluation and graded on a 1-6 scale for degree of hyperplasia/neoplasia/carcinoma.

[4] = cited from earlier work; remark: listed apart in the source
[5] = test system: transgenic adenocarcinoma mouse prostate (TRAMP) mouse; assay: TRAMP animal model: average weight of dissected prostate lobes; format: in vivo
Experimental: as §1

[6] = after a 200 mg dose in six elderly patients
[7] = TRAMP mice treated with R-etodolac
[8] = TRAMP mice, High Dose (1250 ppm in diet), 18 weeks, average ± standard deviation
[9] = TRAMP mice, Low Dose (312 ppm in diet), 18 weeks, average ± standard deviation

## CCc1cccc2c3c([nH]c12)C(CC)(CC(=O)O)OCC3 (racemic) [etodolac, 1,8-diethyl-1,3,4,9-tetrahydro[3,4-6]indole-1-acetic acid]
[1]; racemic mixture
  Elimination half-life: 6 to 8 h

## CCc1cccc2c3c([nH]c12)[C@](CC)(CC(=O)O)OCC3 (single isomer, unassigned) [S(+)-enantiomer of etodolac, reference compound]
[1]; [6]
  Maximum concentration relative to R-enantiomer: 5 fold lower
Prostaglandin synthetase
  Prostaglandin synthetase inhibitory activity: almost all
[2]
  Anti-inflammatory activity (reduction in paw volume): almost all of the anti-inflammatory activity of the racemate

## CCc1cccc2c3c([nH]c12)[C@@](CC)(CC(=O)O)OCC3 [R-etodolac]
Hyperplastic cells
  Activity against hyperplastic cells: potent activity against hyperplastic cells that is at least equivalent to that of the S(+) enantiomer
[1]; [6]
  Maximum plasma concentration: about 33 μM
[1]; in plasma after administration of RS-etodolac, Brocks et al. 1994
  Plasma concentrations of R-enantiomer relative to S-enantiomer: about 10 fold
[3]; [7]
  Effects in any other tissues: No other effects in any other tissues were observed
  Progression of the disease (histological analysis): maintaining the animals in a pre-cancerous stage
[3]; High dose group (1250 ppm in diet), 18 weeks, statistically significant from control group, p < 0.005
  Overall Mean (staging of group): 3.3*
[3]; Low dose group (312 ppm in diet), 18 weeks
  Overall Mean (staging of group): 4.3
[3]; individual TRAMP mice, High dose (1250 ppm in diet), 18 weeks
  Average mouse Staging: 3.8 and 3.3 (3×) and 3.5 and 3.0
[3]; individual TRAMP mice, Low dose (312 ppm in diet), 18 weeks, grade 1-6
  Histopathological grade, Lateral prostate: 3.5
[3]; individual TRAMP mice, Low dose (312 ppm in diet), 18 weeks
  Average mouse Staging: 4.0 (2×) and 5.5 and 3.6 and 4.5 and 6.0
[4]
  Conversion to the S(+) enantiomer in vivo: not converted significantly
[2]
  Anti-inflammatory activity (reduction in paw volume): No anti-inflammatory activity was discernible
[5]; [8]
  Average weigh (g) Anterior Prostate: 0.076 ± 0.012 g
  Average weigh (g) Dorsal Prostate: 0.053 ± 0.013 g
  Average weigh (g) Lateral Prostate: 0.016 ± 0.003 g
  Average weigh (g) Ventral prostate: 0.014 ± 0.001 g
  Total Weigh average: 0.160 ± 0.022 g
[5]; [9]
  Average weigh (g) Anterior Prostate: 0.062 ± 0.033 g
  Average weigh (g) Dorsal Prostate: 0.062 ± 0.027 g
  Average weigh (g) Lateral Prostate: 0.015 ± 0.001 g
  Average weigh (g) Ventral prostate: 0.024 ± 0.017 g
[5]; TRAMP mice, highest dose
  Overall size of the prostates: reduction of the overall size of the prostates
[5]; treated mice compared to untreated mice
  Overall size of the prostates: reduces the overall size of the prostates
